Results reported in US8222284B2, “Stable formulations of thiadiazole derivative” (Eli Lilly and Company, priority 2007, dated 2012).

Legend:
Assay type in all cases: physicochemical
[1] = Enantiomeric (chiral) stability of the compound in buffer solutions, chiral HPLC assay
Experimental: (§1) Stability for N-{4-(2,2-dimethyl-propionyl)-(5R)-5-[(2-ethylamino-ethanesulfonylamino)-methyl]-5-phenyl-4.5-dihydro-[1,3,4]thiadiazol-2-yl}-2,2-dimethyl-propionamide (the compound) is assessed at 0.1 mg/mL in various buffers adjusted from pH 2 through 8 with various pH adjusting agents (e.g. 0.1 and 1 N HCl; 0.1, 1, and 5 N NaOH) and at different storage conditions (e.g. 5° C., 25° C., and 40° C. at 75% relative humidity). Hereinafter, the 40° C. at 75% relative humidity storage condition will be referred to as 40° C. These buffers include 10 mM and 50 mM tartrate (40° C.), 10 mM phosphate (25 and 40° C.), 50 mM phosphate (40° C.), and 10 mM citrate (25 and 40° C. Additional solution stability studies include 10 mM citrate (pH 8; 5° C., 25° C., and 40° C.) and 10 mM NaCl, 10 mM sodium sulfate, 10 mM mesylate, 10 mM tartrate, 10 mM phosphate, and 10 mM citrate (pH 8, 40° C). Lyophilized stability studies for N-{4-(2,2-dimethyl-propionyl)-(5R)-5-[(2-ethylamino-ethanesulfonylamino)-methyl]-5-phenyl-4,5-dihydro-[1,3,4]thiadiazol-2-yl}- 2-dimethyl-propionamide involve solutions containing 10 mM tartrate buffer at pH 3 which are lyophilized and subjected to storage at 5° C., 25° C., and 40 ° C. for 1, 3, and 6 months. Finally, the enantiomeric stability for N-{4-(2,2-dimethyl-propionyl)-(5R)-5-[(2-ethylamino-ethanesulfonylamino-methyl]-5-phenyl-4,5-dihydro-[1,3,4]thiadiazol-2-yl}-2,2-dimethyl-propionamide is assessed when dissolved in various organic solvents and aqueous/solvent mixtures, including methanol, ethanol, acetonitrile, acetone, ethyl acetate, and 50% ethanol/50% water (all at 25° C. and 40° C.) and in 1-octanol (25° C.).
(§2) The enantiomeric stability is measured with a chiral HPLC assay employing polar ionic separation conditions. Those conditions include Column: Chirobiotic T, 150×4.6 mm; Detector UV, 290 nm; Flow: 0.225-0.35 mL/min., adjust to optimize chiral separation; injection: 2 μL-10 μL; Column Temperature: 45° C.; Mobile Phase: 0.01% TEA, 1.0% HOAc, 1.0% water (DIW) in methanol. Enantioselectivity is very sensitive to mobile phase composition, specifically the acid:base ratio. For this reason, the TEA and HOAc additives are accurately measured and then delivered by pipette into the mobile phase while stirring.

[2] = Lyophilized stability study (10 mM tartrate buffer pH 3, lyophilized and stored), chiral conversion
Experimental: as §1, §2

[3] = Enantiomeric stability when dissolved in organic solvents and aqueous/solvent mixtures
Experimental: as §1
The enantiomeric stability is measured with a chiral HPLC assay employing polar ionic separation conditions. […] For this reason, the TEA and HOAc additives are accurately measured and then delivered by pipette into the mobile phase while stirring.

What does the source list for CCNCCS(=O)(=O)NC[C@@]1(c2ccccc2)SC(NC(=O)C(C)(C)C)=NN1C(=O)C(C)(C)C [the compound, N-{4-(2,2-dimethyl-propionyl)-(5R)-5-[(2-ethylamino-ethanesulfonylamino)-methyl]-5-phenyl-4,5-dihydro-[1,3,4]thiadiazol-2-yl}-2,2-dimethyl-propionamide]?
chiral conversion of the compound ([1]; 10 mM citrate buffer, pH 2.1, at least 96 hours, 40° C.): no chiral conversion; chiral conversion of the compound ([1]; 10 mM citrate buffer, pH 2.1, at least 120 hours, 25° C.): no chiral conversion; chiral conversion of the compound ([1]; 10 mM citrate buffer, pH 3.3, at least 96 hours, 40° C.): no chiral conversion; chiral conversion of the compound ([1]; 10 mM citrate buffer, pH 3.3, at least 120 hours, 25° C.): no chiral conversion; chiral conversion of the compound ([1]; 10 mM citrate buffer, pH 4.2, at least 96 hours, 40° C.): no chiral conversion; chiral conversion of the compound ([1]; 10 mM citrate buffer, pH 4.2, at least 120 hours, 25° C.): no chiral conversion; % of the compound remains ([1]; 10 mM citrate buffer, pH 8.4, 24 hours, 25° C.): 95.8%; % of the compound remains ([1]; 10 mM citrate buffer, pH 8.4, 120 hours, 5° C.): 99.3%; chiral conversion of the compound ([1]; 10 mM sodium phosphate buffer, pH 2.3, at least 120 hours, 25° C.): no chiral conversion; chiral conversion of the compound ([1]; 10 mM sodium phosphate buffer, pH 2.3, at least 120 hours, 40° C.): no chiral conversion; chiral conversion of the compound ([1]; 10 mM sodium phosphate buffer, pH 3.4, at least 120 hours, 25° C.): no chiral conversion; chiral conversion of the compound ([1]; 10 mM sodium phosphate buffer, pH 3.4, at least 120 hours, 40° C.): no chiral conversion; chiral conversion of the compound ([1]; 10 mM sodium phosphate buffer, pH 5.4, at least 120 hours, 25° C.): no chiral conversion; chiral conversion of the compound ([1]; 10 mM sodium phosphate buffer, pH 5.4, at least 120 hours, 40° C.): no chiral conversion; chiral conversion of the compound ([1]; 10 mM tartrate buffer, pH 2.1, at least 96 hours, 40° C., 0.1 mg/mL): no chiral conversion; chiral conversion of the compound ([1]; 10 mM tartrate buffer, pH 3.1, at least 96 hours, 40° C., 0.1 mg/mL): no chiral conversion; chiral conversion of the compound ([1]; 10 mM tartrate buffer, pH 4,1, at least 96 hours, 40° C., 0.1 mg/mL): no chiral conversion; % of the compound remains ([1]; 10 mM tartrate buffer, pH 6.2, 96 hours, 40° C.): 97.5%; % of the compound remains ([1]; 10 mM tartrate buffer, pH 8.7, 96 hours, 40° C.): 60.3%; chiral conversion of the compound ([1]; 50 mM phosphate buffer, pH 2.2, at least 96 hours, 40° C.): no chiral conversion; chiral conversion of the compound ([1]; 50 mM phosphate buffer, pH 3.3, at least 96 hours, 40° C.): no chiral conversion; chiral conversion of the compound ([1]; 50 mM phosphate buffer, pH 5.0, at least 96 hours, 40° C.): no chiral conversion; chiral conversion of the compound ([1]; 50 mM tartrate buffer, pH 2.0, at least 120 hours, 40° C., 0.1 mg/mL): no chiral conversion; chiral conversion of the compound ([1]; 50 mM tartrate buffer, pH 2.9, at least 120 hours, 40° C., 0.1 mg/mL): no chiral conversion; chiral conversion of the compound ([1]; 50 mM tartrate buffer, pH 3.9, at least 120 hours, 40° C., 0.1 mg/mL): no chiral conversion; % of the compound remains ([1]; citrate buffer, pH 6.2, 96 hours, 40° C.): 98.2%; % of the compound remains ([1]; citrate buffer, pH 6.2, 120 hours, 25° C.): 99.9%; chiral conversion of the compound ([2]; lyophilized formulation pH 3.0, 1 month, 5° C.): no chiral conversion; chiral conversion of the compound ([2]; lyophilized formulation pH 3.0, 1 month, 25° C.): no chiral conversion; chiral conversion of the compound ([2]; lyophilized formulation pH 3.0, 1 month, 40° C. (75% relative humidity)): no chiral conversion; chiral conversion of the compound ([2]; lyophilized formulation pH 3.0, 3 months, 5° C.): no chiral conversion; chiral conversion of the compound ([2]; lyophilized formulation pH 3.0, 3 months, 25° C.): no chiral conversion; chiral conversion of the compound ([2]; lyophilized formulation pH 3.0, 3 months, 40° C. (75% relative humidity)): no chiral conversion; chiral conversion of the compound ([2]; lyophilized formulation pH 3.0, 6 months, 5° C.): no chiral conversion; chiral conversion of the compound ([2]; lyophilized formulation pH 3.0, 6 months, 25° C.): no chiral conversion; chiral conversion of the compound ([2]; lyophilized formulation pH 3.0, 6 months, 40° C. (75% relative humidity)): no chiral conversion; stability / conversion to the S enantiomeric form, compared with the other solvents tested ([3]; in 50% ethanol/50% water (25° C. and 40° C.)): less stable; stability / conversion to the S enantiomeric form, compared with the other solvents tested ([3]; in acetonitrile (25° C. and 40° C.)): less stable; stability / conversion to the S enantiomeric form, compared with the other solvents tested ([3]; in ethyl acetate (25° C. and 40° C.)): less stable
